Assay results taken from patent US20180024136A1, “Development of ABCG2-Sensitive Fluorescent Probe For Isolation of ABCG2low Neural Stem/Progenitor Cells” (National University of Singapore, priority 2015, published 2018).

How the values were obtained:
[1] = Spectroscopic properties of CF library (absorbance, emission, quantum yield, extinction coefficient); type: physicochemical; settings: 100 μM in ethanol; for QY (Φ): reference fluorescein
Description: All the chemicals and solvents were purchased from Sigma Aldrich, Alfa Aesar, Fluka, MERCK, Tocris or Acros, and used without further purification. Normal phase purifications were carried out using Merck Silica Gel 60 (particle size: 0.040-0.063 mm, 230-400 mesh). Analytical characterization was performed on a HPLC-MS (Agilent-1200 series) with a DAD detector and a single quadrupole mass spectrometer (6130 series) with an ESI probe. ^1H-NMR and ^13C-NMR spectra were recorded on Bruker Avance 300 MHz NMR spectrometers, and chemical shifts are expressed in parts per million (ppm) and coupling constants are reported as a J value in Hertz (Hz). High resolution mass spectrometry (HRMS) data was recorded on a Micro mass VG 7035 (Mass Spectrometry Laboratory at National University of Singapore (NUS)). Spectroscopic and quantum yield data were measured on spectroscopic measurements, performed on a fluorometer and UV/VIS instrument, Synergy 4 of Bioteck Company. The slit width was 1 nm for both excitation and emission, and the data analysis was performed using GraphPrism 5.0.

differentiated NS5 cells = test: CDg13 staining of differentiated NS5 cells under ABC transporter inhibitors (flow cytometry); type: cell-based, mouse; settings: inhibitor during staining
Description: (§1) Flow cytometry was performed using Attune Cytometer (Invitrogen). Hoechest33342 (2 μM) and CDg13 (1 μM) are incubated with culture media for 1 hours and detached as single cells. The collected cells were suspended in BSA- and FBS-free DMEM to prevent loss of CDg13 signal. The average fluorescence intensity of total cells in each experimental group was analyzed by Attune cytometer software for quantification study.

human KB3-1 cells = test: MTS viability assay on KB3-1 cells; type: cell-based; settings: 48 h
ABCB1 = ABCB1 (Homo sapiens, UniProt P08183); test: Probe fluorescence in HCT-15 cells under verapamil; settings: HCT-15, 10 to 10,000 nM verapamil
ABCG2 = biological target: T1, ABCG2 (Homo sapiens, UniProt Q9UNQ0); test: Probe fluorescence in ABCG2/KB3-1 cells under Ko143; settings: ABCG2/KB3-1, 10 to 1,000 nM Ko143
T1 sequence (Q9UNQ0 1-655): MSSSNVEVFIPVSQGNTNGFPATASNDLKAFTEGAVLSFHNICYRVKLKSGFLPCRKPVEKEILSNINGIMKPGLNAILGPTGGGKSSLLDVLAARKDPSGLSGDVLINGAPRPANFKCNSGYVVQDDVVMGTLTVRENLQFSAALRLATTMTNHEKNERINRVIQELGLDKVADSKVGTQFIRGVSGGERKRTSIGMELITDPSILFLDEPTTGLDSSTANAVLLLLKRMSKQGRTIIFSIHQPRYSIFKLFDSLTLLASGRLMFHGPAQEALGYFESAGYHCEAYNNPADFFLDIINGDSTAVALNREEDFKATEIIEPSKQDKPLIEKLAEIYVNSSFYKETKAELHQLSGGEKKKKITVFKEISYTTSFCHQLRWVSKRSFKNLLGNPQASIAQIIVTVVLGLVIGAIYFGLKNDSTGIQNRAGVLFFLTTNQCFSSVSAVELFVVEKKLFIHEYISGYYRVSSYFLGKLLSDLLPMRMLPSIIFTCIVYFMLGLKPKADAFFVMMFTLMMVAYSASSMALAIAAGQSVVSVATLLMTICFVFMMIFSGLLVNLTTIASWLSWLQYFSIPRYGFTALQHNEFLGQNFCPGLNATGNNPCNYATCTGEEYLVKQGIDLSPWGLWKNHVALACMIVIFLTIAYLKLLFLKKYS

NS-5 cells = test: CDg13 staining of NS5 cells under STF31, ionomycin or Ko143; type: cell-based, mouse; settings: STF31 2 μM, ionomycin 0.1 μM, Ko143 0.5 μM
Description: FIGS. 7A-7C show CDg13 stains depending on Abcg2 activity: (A) CDg13 (1 μM) were stained for 1 hour in live (A-1) or dead cells treated with 4% PFA (A-2) (representative image of three independent experiments, and (B) and (C) NS5 cells were treated STF31 (2 μM), ionomycin (0.1 μM) or Ko143 (0.5 μM) with treatment of CDg13 and Hoechst33342 under normal media (control had same amount of DMSO (0.2%) with other drugs treated group), staining intensity is shown by epifluorescence microscopy (B) or flow cytometry (C) (bar: 50 μm).
as §1

Chain of ABCB1 (P08183 whole entry): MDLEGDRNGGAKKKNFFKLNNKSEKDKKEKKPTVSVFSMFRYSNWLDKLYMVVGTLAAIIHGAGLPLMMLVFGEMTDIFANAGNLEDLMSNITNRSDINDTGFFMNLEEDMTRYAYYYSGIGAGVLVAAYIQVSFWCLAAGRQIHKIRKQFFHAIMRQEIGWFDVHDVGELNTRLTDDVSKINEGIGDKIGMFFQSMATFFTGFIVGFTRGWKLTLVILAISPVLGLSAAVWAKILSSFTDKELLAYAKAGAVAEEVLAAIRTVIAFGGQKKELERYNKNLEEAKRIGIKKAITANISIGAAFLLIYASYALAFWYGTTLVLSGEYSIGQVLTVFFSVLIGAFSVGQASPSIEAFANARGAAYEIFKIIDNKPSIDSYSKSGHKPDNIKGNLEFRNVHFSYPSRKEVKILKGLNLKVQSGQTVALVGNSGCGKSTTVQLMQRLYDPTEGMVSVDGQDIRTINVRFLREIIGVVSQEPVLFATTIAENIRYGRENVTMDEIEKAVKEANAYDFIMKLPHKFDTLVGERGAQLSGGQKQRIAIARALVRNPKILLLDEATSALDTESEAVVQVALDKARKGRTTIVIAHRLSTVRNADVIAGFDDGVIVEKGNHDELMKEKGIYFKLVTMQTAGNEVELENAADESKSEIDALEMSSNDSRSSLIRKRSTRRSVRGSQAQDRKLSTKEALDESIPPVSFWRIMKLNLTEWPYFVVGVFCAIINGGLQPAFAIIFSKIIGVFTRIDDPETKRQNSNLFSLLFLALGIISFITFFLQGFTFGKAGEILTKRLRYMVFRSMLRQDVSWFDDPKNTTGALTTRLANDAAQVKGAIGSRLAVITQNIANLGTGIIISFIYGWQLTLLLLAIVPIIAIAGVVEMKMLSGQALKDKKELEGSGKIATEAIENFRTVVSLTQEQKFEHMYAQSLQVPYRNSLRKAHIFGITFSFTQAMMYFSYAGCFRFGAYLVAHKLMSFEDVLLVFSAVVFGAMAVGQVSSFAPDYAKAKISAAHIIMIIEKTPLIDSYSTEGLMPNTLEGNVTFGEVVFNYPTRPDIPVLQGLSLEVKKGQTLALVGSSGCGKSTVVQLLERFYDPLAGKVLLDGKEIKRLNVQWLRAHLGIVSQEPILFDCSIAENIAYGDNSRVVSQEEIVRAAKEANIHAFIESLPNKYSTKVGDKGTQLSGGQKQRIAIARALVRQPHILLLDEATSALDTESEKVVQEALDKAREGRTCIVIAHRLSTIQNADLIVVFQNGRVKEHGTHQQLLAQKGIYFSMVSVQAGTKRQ

Molecule | Abs (nm) [1] | Em (nm) [1] | QY (Φ) [1] | further results
C#CCNC(=O)c1ccc(-c2c3cc(Cl)c(=O)cc-3oc3cc(O)c(Cl)cc23)cc1 [CF-F11] | 520 nm | 559 nm | 0.21 | 
CCCCCCCCCCCCN(C)C(=O)c1ccc(-c2c3cc(Cl)c(=O)cc-3oc3cc(O)c(Cl)cc23)cc1 [CF-G2] | 520 nm | 553 nm | 0.85 | 
CCCCCN(CCCCC)C(=O)c1ccc(-c2c3cc(Cl)c(=O)cc-3oc3cc(O)c(Cl)cc23)cc1 [CF-G3] | 520 nm | 552 nm | 0.63 | 
O=C(CCCCc1ccccc1)c1ccc(-c2c3cc(Cl)c(=O)cc-3oc3cc(O)c(Cl)cc23)cc1 [CF-G4] | 520 nm | 556 nm | 0.40 | 
CCCC(C)NC(=O)c1ccc(-c2c3cc(Cl)c(=O)cc-3oc3cc(O)c(Cl)cc23)cc1 (stereo not drawn) [CF-G5] | 520 nm | 557 nm | 0.38 | 
CCOC(=O)N1CCC(NC(=O)c2ccc(-c3c4cc(Cl)c(=O)cc-4oc4cc(O)c(Cl)cc34)cc2)CC1 [CF-G6] | 520 nm | 556 nm | 0.29 | 
CCCCNC(=O)c1ccc(-c2c3cc(Cl)c(=O)cc-3oc3cc(O)c(Cl)cc23)cc1 [CF-G7] | 520 nm | 559 nm | 0.41 | 
CCC(C)NC(=O)c1ccc(-c2c3cc(Cl)c(=O)cc-3oc3cc(O)c(Cl)cc23)cc1 (stereo not drawn) [CF-G8] | 520 nm | 556 nm | 0.29 | 
O=C(NCC1CCCCC1)c1ccc(-c2c3cc(Cl)c(=O)cc-3oc3cc(O)c(Cl)cc23)cc1 [CF-G9] | 520 nm | 557 nm | 0.27 | 
CCCCCNC(=O)c1ccc(-c2c3cc(Cl)c(=O)cc-3oc3cc(O)c(Cl)cc23)cc1 [CF-G10] | 520 nm | 558 nm | 0.23 | 
CCC(C)(C)NC(=O)c1ccc(-c2c3cc(Cl)c(=O)cc-3oc3cc(O)c(Cl)cc23)cc1 [CF-G11] | 520 nm | 557 nm | 0.35 | 
CC1CCCC(NC(=O)c2ccc(-c3c4cc(Cl)c(=O)cc-4oc4cc(O)c(Cl)cc34)cc2)C1C (stereo not drawn) [CF-H2] | 520 nm | 556 nm | 0.65 | 
COCCN(CCOC)C(=O)c1ccc(-c2c3cc(Cl)c(=O)cc-3oc3cc(O)c(Cl)cc23)cc1 [CF-H3] | 520 nm | 553 nm | 0.82 | 
CCCCCCNC(=O)c1ccc(-c2c3cc(Cl)c(=O)cc-3oc3cc(O)c(Cl)cc23)cc1 [CF-H4] | 520 nm | 556 nm | 0.63 | 
CC1CCC(NC(=O)c2ccc(-c3c4cc(Cl)c(=O)cc-4oc4cc(O)c(Cl)cc34)cc2)CC1 (stereo not drawn) [CF-H5] | 520 nm | 557 nm | 0.67 | 
CC1CCCCN1C(=O)c1ccc(-c2c3cc(Cl)c(=O)cc-3oc3cc(O)c(Cl)cc23)cc1 (stereo not drawn) [CF-H6] | 520 nm | 553 nm | 0.65 | 
O=C(NCCc1ccccc1F)c1ccc(-c2c3cc(Cl)c(=O)cc-3oc3cc(O)c(Cl)cc23)cc1 [CF-H7] | 520 nm | 557 nm | 0.59 | 
O=C(NCCc1ccccc1Cl)c1ccc(-c2c3cc(Cl)c(=O)cc-3oc3cc(O)c(Cl)cc23)cc1 [CF-H8] | 520 nm | 556 nm | 0.51 | 
O=C(NCCc1ccccc1-c1ccccc1)c1ccc(-c2c3cc(Cl)c(=O)cc-3oc3cc(O)c(Cl)cc23)cc1 [CF-H9] | 520 nm | 558 nm | 0.30 | 
CC(C)CC(C)NC(=O)c1ccc(-c2c3cc(Cl)c(=O)cc-3oc3cc(O)c(Cl)cc23)cc1 (stereo not drawn) [CF-H10] | 520 nm | 557 nm | 0.38 | 
CCCCCCCCCCCCCCCCCCN(C)C(=O)c1ccc(-c2c3cc(Cl)c(=O)cc-3oc3cc(O)c(Cl)cc23)cc1 [CF-H11] | 520 nm | 552 nm | 0.32 | 
COc1cc2c(cc1OC)CN(CCc1ccc(NC(=O)c3cccc4c(=O)c5cccc(OC)c5[nH]c34)cc1)CC2 [Elacridar, elacridar] |  |  |  | staining of CDg13 versus DMSO control (differentiated NS5 cells): around 2.5 fold
CCOc1ccc(-c2nc3ccc(-c4nc5ccc(N6CCN(C)CC6)cc5[nH]4)cc3[nH]2)cc1 [Hoechst 33342] |  |  |  | death rate (human KB3-1 cells; 1 μM): 25%; cell death (human KB3-1 cells; 10 μM): 100%; fold change of staining (ABCB1): up to 1.5 fold; fold change in fluorescence intensity (ABCG2): up to 1.3 fold
COc1ccc2c3c([nH]c2c1)[C@H](CC(C)C)N1C(=O)[C@H](CCC(=O)OC(C)(C)C)NC(=O)[C@@H]1C3 [Ko143] |  |  |  | effect on CDg13 staining (NS-5 cells): stained CDg13 more strongly than normal NS-5 cells; staining of CDg13 versus DMSO control (differentiated NS5 cells): around 2.5 fold
CN(C)C(=O)CCSC(SCCC(=O)O)c1cccc(/C=C/c2ccc3ccc(Cl)cc3n2)c1 (stereo not drawn) [MK571] |  |  |  | staining of CDg13 versus DMSO control (differentiated NS5 cells): ~1.5 fold
CCCN(CCC)S(=O)(=O)c1ccc(C(=O)O)cc1 [probenecid] |  |  |  | staining of CDg13 versus DMSO control (differentiated NS5 cells): no effect of probe staining
COc1ccc(CCN(C)CCCC(C#N)(c2ccc(OC)c(OC)c2)C(C)C)cc1OC (stereo not drawn) [verapamil] |  |  |  | staining of CDg13 versus DMSO control (differentiated NS5 cells): no effect of probe staining
Rhodamine123 |  |  |  | fold change of staining (ABCB1): up to 4.0 fold; fold change in fluorescence intensity (ABCG2): did not increase
